Reference: paper PMC12005470, “Effects of Cholesterol on the Breast Cancer Resistance Protein: Studies through the Synthesis and Biological Evaluation of Chemical Tools” (Chemmedchem, 2025)

How the values were obtained:
[1] = molecular target: T1, breast cancer resistance protein (BCRP/ABCG2) (Homo sapiens, UniProt Q9UNQ0); assay: Ko143-sensitive accumulation in HEK293-ABCG2 cells, confocal microscopy; efflux by flow cytometry; assay type: cell-based
T1 sequence (Q9UNQ0 1-655): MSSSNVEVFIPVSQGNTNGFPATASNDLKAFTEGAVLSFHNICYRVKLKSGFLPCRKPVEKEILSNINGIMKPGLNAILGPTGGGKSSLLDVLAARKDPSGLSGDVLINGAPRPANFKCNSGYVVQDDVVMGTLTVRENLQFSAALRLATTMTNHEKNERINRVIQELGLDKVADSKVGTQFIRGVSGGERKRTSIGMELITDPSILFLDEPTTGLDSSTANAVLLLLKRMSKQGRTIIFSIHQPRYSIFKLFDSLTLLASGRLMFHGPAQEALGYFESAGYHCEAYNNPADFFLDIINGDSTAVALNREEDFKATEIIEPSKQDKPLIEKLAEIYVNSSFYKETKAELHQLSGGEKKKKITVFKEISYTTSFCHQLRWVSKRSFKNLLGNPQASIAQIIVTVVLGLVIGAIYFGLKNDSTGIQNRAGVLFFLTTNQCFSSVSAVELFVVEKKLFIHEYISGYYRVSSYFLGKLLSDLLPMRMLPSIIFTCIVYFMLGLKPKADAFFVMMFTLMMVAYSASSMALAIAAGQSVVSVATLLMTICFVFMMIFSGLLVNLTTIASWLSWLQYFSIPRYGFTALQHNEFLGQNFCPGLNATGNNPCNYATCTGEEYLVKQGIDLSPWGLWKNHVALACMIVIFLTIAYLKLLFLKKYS

[2] = molecular target: T1, breast cancer resistance protein (BCRP/ABCG2); assay: cell-based

C=Cc1c(C)c2cc3nc(c4c5[nH]c(cc6nc(cc1[nH]2)C(C)=C6CC)c(C)c5C(=O)[C@@H]4C(=O)OC)[C@@H](CCC(=O)O)[C@@H]3C [compound 2, pheophorbide a]
Ko143-sensitive accumulation in HEK293-ABCG2 cells, confocal microscopy; efflux [1]: ABCG2 inhibition by Ko143 caused an intracellular accumulation of hoechst and pheophorbide a (Figure S1)

O=C(/C=C/c1ccccc1)c1ccccc1 [compound 5, Chalcone (5)]
IC50 [2]: 2210 ± 500 nM
